Tests used:
CDK12/CycK complex [1] = target: T1, CDK12/CycK complex (Homo sapiens, UniProt Q9NYV4); assay: Measurement of CDK12 inhibitory activity by binding assay (TR-FRET, 66 nM BODIPY-FL-labeled AT-7519); conditions: inhibitory rate against CDK12 at 1 μM test compound, 66 nM BODIPY-FL-labeled AT-7519, 2 nM CDK12/CycK
In short: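 His-tagged CDK12/CycK (2 nM) premixed with 66 nM BODIPY-FL-AT-7519 tracer, 0.2 nM Tb-streptavidin and 0.4 nM biotin-anti-His, then incubated with compound 120 min at room temperature. Tracer displacement read as BODIPY-FL/Tb TR-FRET ratio; percent inhibition normalized to no-compound control and 3 μM AT-7519 blank.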

A2780 cells = assay: In vitro proliferation suppression test (CellTiter-Glo); format: cell-based, human; conditions: Homo sapiens, 72 h, A2780 cell proliferation inhibitory rate at 1 μM test compound, three days
In short: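 A2780 cells in RPMI1640 with 10% FBS were exposed to 1 μM compound for three days at 37° C, 5% CO2. CellTiter-Glo luminescence read; inhibition (%) calculated relative to wells without compound.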

CDK12/CycK enzyme = CDK12/CycK enzyme (Homo sapiens, UniProt Q9NYV4); assay: Measurement of CDK12/CycK inhibitory activity (ULight-4E-BP1 peptide phosphorylation, LANCE); format: biochemical; conditions: inhibitory rate against CDK12/CycK at 1 μM test compound, ATP 10 μM or 500 μM
Procedure: Experimental Example 2: Measurement of CDK12/CycK Inhibitory Activity
A test compound dissolved in DMSO was added to a reaction solution (50 mM HEPES (pH 7.5), 10 mM MgCl2, 1 mM DTT, 0.01% Tween 20, 0.01% BSA) containing CDK12/CycK enzyme and ULight-labeled eIF4E-binding protein 1 (4E-BP1) (Thr37/Thr46) peptide (PerkinElmer), and the mixture was reacted at room temperature for 60 min. […] was added to give an ATP solution with a final concentration of 10 μM or 500 μM to start the enzyme reaction, and the mixture was reacted at room temperature for 60 min. A LANCE Detection buffer (PerkinElmer) containing europium-labeled anti-phosphorylation 4E-BP1 (Thr37/Thr46) antibody (PerkinElmer) and EDTA (final concentration 10 mM) was added to discontinue the reaction. After standing for 60 min, time decomposition fluorescence value (excitation 320 nm, emission 615 nm, 665 nm) was measured by Envision (PerkinElmer). The inhibitory rate (%) of the test compound against CDK12/CyclinK was calculated by the following formula. Inhibitory rate (%)=(1−(count of test compound−blank)÷(control−blank))×100
The count of the CDK12 enzyme reaction mixture under compound non-addition conditions is indicated as control, and the count under compound non-addition and CDK12/CycK enzyme non-addition conditions is indicated as blank.
The results measured by the above-mentioned method (inhibitory rate (%) of the signal value at 1 μM test compound relative to control is shown below.

[2] = test system: A2780 intracellular CTD pSer2; assay: CTD pSer2 measurement using human ovarian cancer cell A2780 and In-Cell Western method; format: cell-based; conditions: inhibitory rate against A2780 intracellular CTD pSer2 at 1 μM test compound, 4 hr
Procedure: Experimental Example 3: CTD pSer2 Measurement Using Human Ovarian Cancer Cell A2780 and In-Cell Western Method
A2780 cells (ATCC) were seeded in a 96 well plate at 1.8×10^4 cells/well, and the cells were cultured overnight in a cell culture medium RPMI1640 (FUJIFILM Wako Pure Chemical Corporation) containing 10% FBS (fetal bovine serum) and 1% penicillin/streptomycin. A test compound dissolved in a cell medium was added, and the mixture was stood for 4 hr in a CO2 incubator (37° C.). The cells were fixed with ALTFiX (Falma) for 30 min, and washed 3 times with a washing buffer (20 mM Tris-HCl (pH 7.5), 500 mM NaCl, 0.1% Tween20). 0.1% Triton-X-100 diluted with PBS(−) was added and the mixture was incubated at room temperature for 15 min. Thereafter, a blocking buffer (LI-COR) was added, and the mixture was incubated at room temperature for 1 hr. An anti-CTD pS2 antibody (Abcam) suspended in an antibody diluent (blocking buffer: PBS(−)-diluted 0.1% Tween20=1:1) was added, and the mixture was incubated at room temperature for 1 hr. The mixture was […] with a washing buffer, IRDye800CW-labeled anti-goat antibody (LI-COR) was added, and the mixture was incubated at room temperature for 1 hr. The mixture was washed 3 times with a washing buffer, and the fluorescence wavelength at 800 nm was measured by Aerius (LI-COR).
The inhibitory rate (%) of the test compound against A2780 intracellular CTD pSer2 was calculated by the following formula. Inhibitory rate (%)=(1−(count of test compound−blank)÷(control−blank))×100
The count of the A2780 cell under compound non-addition conditions is indicated as control, and the count under compound non-addition and primary antibody non-addition conditions is indicated as blank.
The results measured by the above-mentioned method (inhibitory rate of the signal value at 1 μM test compound relative to control) are shown below.

[3] = test system: Human breast cancer cells SUM149PT; assay: Antitumor action on SUM149PT cells tumor-bearing model; format: in vivo; conditions: 60 mg/kg orally two times per day for 2 weeks; SUM149PT subcutaneous transplant in BALB/cAJcl-nu/nu mice; average tumor volume increase ratio vs control group
Procedure: Experimental Example 6: Antitumor Action on SUM149PT CELLS Tumor-Bearing Model
Human breast cancer cells SUM149PT were suspended in a solution of Matrigel (BD BIOSCIENCES):HBSS (Thermo Fisher Scientific)=1:1, and subcutaneously transplanted at 3×10^6 cells to the abdomen of BALB/cAJcl-nu/nu (CLEA Japan, Inc.). The tumor diameter of the engrafted tumor was measured and the tumor volume was calculated by the following formula. Tumor volume=major axis×minor axis×minor axis×(1/2)
Individuals having a tumor grown to a volume of about 120 mm^3 were selected, and 5 mice per group were used for the experiment. A suspension of the test compound in 0.5% methylcellulose solution (FUJIFILM Wako Pure Chemical Corporation) was orally administered at a dose of 60 mg/kg (10 mL/kg) two times per day for 2 weeks. The tumor volume was measured over time one day before the start of the administration, and every 4 days from day 3. The next day of the completion of medication for 14 days, the tumor diameter was finally measured and the tumor volume was calculated. The tumor proliferation rate of the test compound administration group in comparison with the control administration group was taken as an average tumor volume increase ratio T/C and calculated by the following formula. […]

CDK12/CycK complex [4] = target: T1, CDK12/CycK complex; assay: Measurement of CDK12 inhibitory activity by binding assay (BODIPY-FL labeled AT-7519 high concentration conditions, 1320 nM); conditions: inhibitory rate against CDK12 at 1 μM test compound, 1320 nM BODIPY-FL-labeled AT-7519, 8 nM CDK12/CycK
In short: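 His-tagged CDK12/CycK (8 nM) was incubated with test compound, BODIPY-FL-AT-7519 tracer (1320 nM), Tb-streptavidin (0.2 nM) and biotin-anti-His antibody (0.4 nM) for 120 min at room temperature. TR-FRET ratio (BODIPY-FL/Tb) gave % inhibition versus no-compound control and 30 μM AT-7519 blank; compounds tested at 1 μM.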

Sequence of CDK12/CycK enzyme (Q9NYV4 whole entry, species assumed): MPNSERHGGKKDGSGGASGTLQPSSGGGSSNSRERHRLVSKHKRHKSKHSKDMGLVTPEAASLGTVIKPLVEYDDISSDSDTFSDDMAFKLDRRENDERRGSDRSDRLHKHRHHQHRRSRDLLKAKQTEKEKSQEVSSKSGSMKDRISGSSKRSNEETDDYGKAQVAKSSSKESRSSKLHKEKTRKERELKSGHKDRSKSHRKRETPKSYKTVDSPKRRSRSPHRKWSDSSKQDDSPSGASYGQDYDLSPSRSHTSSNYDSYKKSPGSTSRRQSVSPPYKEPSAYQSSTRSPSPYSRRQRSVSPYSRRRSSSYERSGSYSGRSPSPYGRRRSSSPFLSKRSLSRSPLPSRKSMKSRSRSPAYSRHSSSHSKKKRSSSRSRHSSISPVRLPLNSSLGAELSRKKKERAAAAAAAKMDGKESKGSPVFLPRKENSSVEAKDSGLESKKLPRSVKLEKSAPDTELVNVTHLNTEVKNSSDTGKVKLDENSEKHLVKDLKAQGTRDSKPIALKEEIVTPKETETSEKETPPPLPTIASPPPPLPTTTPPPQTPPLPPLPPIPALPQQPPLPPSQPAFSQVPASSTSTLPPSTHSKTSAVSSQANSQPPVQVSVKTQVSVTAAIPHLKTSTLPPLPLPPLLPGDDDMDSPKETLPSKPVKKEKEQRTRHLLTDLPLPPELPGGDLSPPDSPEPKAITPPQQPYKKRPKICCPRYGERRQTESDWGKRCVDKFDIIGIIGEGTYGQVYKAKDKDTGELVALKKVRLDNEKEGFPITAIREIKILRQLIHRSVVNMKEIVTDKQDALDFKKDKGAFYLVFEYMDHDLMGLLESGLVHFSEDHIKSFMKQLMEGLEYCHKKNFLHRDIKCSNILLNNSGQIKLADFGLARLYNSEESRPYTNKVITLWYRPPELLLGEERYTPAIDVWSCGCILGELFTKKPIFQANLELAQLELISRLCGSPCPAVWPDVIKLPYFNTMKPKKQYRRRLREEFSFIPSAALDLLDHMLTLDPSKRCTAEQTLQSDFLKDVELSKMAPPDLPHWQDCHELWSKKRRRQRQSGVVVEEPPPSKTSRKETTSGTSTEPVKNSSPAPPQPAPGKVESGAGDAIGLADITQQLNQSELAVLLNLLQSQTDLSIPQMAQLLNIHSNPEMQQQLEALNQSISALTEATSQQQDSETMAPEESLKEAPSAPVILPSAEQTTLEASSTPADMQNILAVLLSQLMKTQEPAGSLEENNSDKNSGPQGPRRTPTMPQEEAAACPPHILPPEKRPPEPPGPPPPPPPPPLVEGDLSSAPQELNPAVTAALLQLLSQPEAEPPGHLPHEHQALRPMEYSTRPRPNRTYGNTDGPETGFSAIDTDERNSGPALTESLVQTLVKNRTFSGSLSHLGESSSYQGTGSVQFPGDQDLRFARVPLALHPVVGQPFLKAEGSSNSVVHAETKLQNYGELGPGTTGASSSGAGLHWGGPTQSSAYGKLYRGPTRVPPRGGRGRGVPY
Sequence of CDK12/CycK enzyme (O75909 whole entry partner, species assumed): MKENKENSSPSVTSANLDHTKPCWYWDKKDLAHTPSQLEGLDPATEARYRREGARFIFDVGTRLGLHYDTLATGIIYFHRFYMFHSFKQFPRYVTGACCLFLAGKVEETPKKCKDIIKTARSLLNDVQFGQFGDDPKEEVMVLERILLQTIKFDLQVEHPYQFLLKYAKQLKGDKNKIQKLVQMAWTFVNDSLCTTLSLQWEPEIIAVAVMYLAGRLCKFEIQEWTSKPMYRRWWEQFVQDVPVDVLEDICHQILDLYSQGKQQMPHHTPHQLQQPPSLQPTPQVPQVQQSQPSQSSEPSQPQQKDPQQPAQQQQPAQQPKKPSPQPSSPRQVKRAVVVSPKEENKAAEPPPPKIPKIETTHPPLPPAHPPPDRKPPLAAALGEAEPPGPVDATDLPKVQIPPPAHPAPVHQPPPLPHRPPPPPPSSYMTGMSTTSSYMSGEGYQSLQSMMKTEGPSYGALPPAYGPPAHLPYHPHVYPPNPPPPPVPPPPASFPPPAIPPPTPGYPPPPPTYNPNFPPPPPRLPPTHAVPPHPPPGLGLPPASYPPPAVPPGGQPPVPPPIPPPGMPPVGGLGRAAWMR
T1 sequence (Q9NYV4 whole entry, species assumed): as the sequence (Q9NYV4 whole entry, species assumed) above
T1 sequence (O75909 whole entry partner, species assumed): as the sequence (O75909 whole entry partner, species assumed) above

Row | Compound | inhibition at 1 µM (CDK12/CycK complex [1]) [%] | inhibition at 1 µM (CDK12/CycK enzyme) [%] | inhibition at 1 µM (CDK12/CycK complex [4]) [%] | inhibition at 1 µM (A2780 cells) [%] | inhibition at 1 µM [2] [%] | T/C (%) [3] [%]
1 | COc1ncc(-c2ccc(N(C(=O)NCc3ccccc3)[C@H]3CC[C@H](Nc4ncc(C(F)(F)F)c(NC5COC5)n4)CC3)nc2)cn1 [Example 589, 3-benzyl-1-(5-(2-methoxypyrimidin-5-yl)pyridin-2-yl)-1-(trans-4-((4-(oxetan-3-ylamino)-5-(trifluoromethyl)pyrimidin-2-yl)amino)cyclohexyl) urea] | 100 | 115 |  | 97 | 78 | 
2 | COc1ncc(-c2cnc(N(C(=O)NCc3ccccc3)[C@H]3CC[C@H](Nc4ncc(C#N)c(N5CCCC(O)CC5)n4)CC3)nc2)cn1 (stereo partly drawn) [Example 596, 3-benzyl-1-(trans-4-((5-cyano-4-(4-hydroxyazepan-1-yl)pyrimidin-2-yl)amino)cyclohexyl)-1-(2′-methoxy-5,5′-bipyrimidin-2-yl)urea] | 103 | 100 |  | 99 | 71 | 
3 | COc1ncc(-c2ccc(N(C(=O)OCc3ccccc3)[C@H]3CC[C@H](Nc4ncc(C(F)(F)F)c(N5CC(F)(CO)C5)n4)CC3)nc2)cn1 [Example 600, benzyl (trans-4-((4-(3-fluoro-3-(hydroxymethyl)azetidin-1-yl)-5-(trifluoromethyl)pyrimidin-2-yl)amino)cyclohexyl) (5-(2-methoxypyrimidin-5-yl)pyridin-2-yl)carbamate] | 83 | 108 |  | 93 | 81 | 
4 | COc1ncc(-c2ccc(N(C(=O)OCc3ccccc3)[C@H]3CC[C@H](Nc4ncc(C#N)c(N5CC(F)(CO)C5)n4)CC3)nc2)cn1 [Example 603, benzyl (trans-4-((5-cyano-4-(3-fluoro-3-(hydroxymethyl)-azetidin-1-yl)pyrimidin-2-yl)amino)cyclohexyl) (5-(2-methoxypyrimidin-5-yl)pyridin-2-yl)carbamate] | 76 | 103 |  | 93 | 81 | 
5 | Cn1cc(-c2ccc(N(C(=O)NCc3ccccc3)[C@H]3CC[C@H](Nc4ncc(C#N)c(NC5(C)COC5)n4)CC3)nc2)cn1 [Example 605, 3-benzyl-1-(trans-4-((5-cyano-4-((3-methyloxetan-3-yl)amino)-pyrimidin-2-yl)amino)cyclohexyl)-1-(5-(1-methyl-1H-pyrazol-4-yl)pyridin-2-yl)urea] | 90 | 100 |  | 98 | 73 | 
6 | COc1ncc(-c2cnc(N(C(=O)OCc3ccccc3)[C@H]3CC[C@H](Nc4ncc(C#N)c(NC5COC5)n4)CC3)nc2)cn1 [Example 608, benzyl (trans-4-((5-cyano-4-(oxetan-3-ylamino)pyrimidin-2-yl)amino)cyclohexyl) (2′-methoxy-5,5′-bipyrimidin-2-yl)carbamate] | 98 | 102 |  | 99 | 44 | 

The next lines start with results.

Row | inhibition at 1 µM (CDK12/CycK complex [1]) [%] | inhibition at 1 µM (CDK12/CycK enzyme) [%] | inhibition at 1 µM (CDK12/CycK complex [4]) [%] | Compound | inhibition at 1 µM (A2780 cells) [%] | inhibition at 1 µM [2] [%] | T/C (%) [3] [%]
7 | 99 | 107 |  | COc1ncc(-c2ccc(N(C(=O)NCc3ccccc3)[C@H]3CC[C@H](Nc4ncc(C#N)c(OC5COC5)n4)CC3)nc2)cn1 [Example 609, 3-benzyl-1-(trans-4-((5-cyano-4-(oxetan-3-yloxy)pyrimidin-2-yl)amino)cyclohexyl)-1-(5-(2-methoxypyrimidin-5-yl)pyridin-2-yl)urea] | 99 | 41 | 
8 | 103 | 99 |  | COc1ncc(-c2ccc(N(C(=O)NCc3ccccn3)[C@H]3CC[C@H](Nc4ncc(C(F)(F)F)c(OC5COC5)n4)CC3)nc2)cn1 [Example 610, 1-(5-(2-methoxypyrimidin-5-yl)pyridin-2-yl)-1-(trans-4-((4-(oxetan-3-yloxy)-5-(trifluoromethyl)pyrimidin-2-yl)amino)cyclohexyl)-3-(pyridin-2-ylmethyl)urea] | 98 | 49 | 
9 | 101 | 101 |  | COc1ncc(-c2cnc(N(C(=O)OCc3ccccc3)[C@H]3CC[C@H](Nc4ncc(C#N)c(N5CCCC(O)CC5)n4)CC3)nc2)cn1 (stereo partly drawn) [Example 611, benzyl (trans-4-((5-cyano-4-(4-hydroxyazepan-1-yl)pyrimidin-2-yl)amino)cyclohexyl) (2′-methoxy-5,5′-bipyrimidin-2-yl)carbamate] | 97 | 48 | 
10 |  |  | 100 | COc1ncc(-c2cnc(N(C(=O)NCc3ccccc3)[C@H]3CC[C@H](Nc4ncc(C(F)(F)F)c(OC5COC5)n4)CC3)cn2)cn1 [Example 612, 3-benzyl-1-(5-(2-methoxypyrimidin-5-yl)pyrazin-2-yl)-1-(trans-4-((4-(oxetan-3-yloxy)-5-(trifluoromethyl)pyrimidin-2-yl)amino)cyclohexyl)urea] | 97 |  | −22

From patent US11584737B2, “Heterocyclic compound” (TAKEDA PHARMACEUTICAL COMPANY LIMITED, priority 2018, dated 2023)
